The target of one series is T1, human GnRH receptor (Homo sapiens, UniProt P30968).
T1 construct: expressed in transfected cells; host or cells: HEK 293 (hGnRH-R/293, from Dr. Stuart Sealfon)
T1 sequence (P30968 1-328): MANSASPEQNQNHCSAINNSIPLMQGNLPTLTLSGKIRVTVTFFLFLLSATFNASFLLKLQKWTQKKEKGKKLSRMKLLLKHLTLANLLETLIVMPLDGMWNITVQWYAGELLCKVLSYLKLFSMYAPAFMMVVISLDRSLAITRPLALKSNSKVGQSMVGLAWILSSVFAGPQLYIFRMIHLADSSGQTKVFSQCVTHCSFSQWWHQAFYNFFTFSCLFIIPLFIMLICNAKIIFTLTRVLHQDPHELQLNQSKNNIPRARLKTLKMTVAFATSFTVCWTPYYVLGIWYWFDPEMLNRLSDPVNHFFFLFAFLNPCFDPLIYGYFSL
Nature of the series: Radioligand binding, 125I-GnRH-A displacement, membranes of HEK 293 cells with human GnRH receptor. The conditions noted are these: read-out: hGnRH IC50. Put shortly:
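After filtration and PBS washes, bound radioactivity was counted by scintillation and IC50 derived. Identical conditions applied for non-human receptors.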

The target in a further series is T2, rat GnRH receptor (Rattus norvegicus, UniProt P30969).
T2 sequence (P30969 1-327): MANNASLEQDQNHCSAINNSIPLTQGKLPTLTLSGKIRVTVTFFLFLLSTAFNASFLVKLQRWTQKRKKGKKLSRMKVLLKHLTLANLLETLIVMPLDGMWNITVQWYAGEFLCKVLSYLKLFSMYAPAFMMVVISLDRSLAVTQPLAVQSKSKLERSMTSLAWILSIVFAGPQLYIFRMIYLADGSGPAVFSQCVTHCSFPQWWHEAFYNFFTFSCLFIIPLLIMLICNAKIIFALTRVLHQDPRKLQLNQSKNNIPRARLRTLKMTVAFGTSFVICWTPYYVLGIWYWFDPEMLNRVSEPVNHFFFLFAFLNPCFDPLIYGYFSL
The series is described as follows: Radioligand binding, 125I-GnRH-A, rat pituitary membranes. The arrangement: membranes were prepared from rat pituitary; from tissue; host or cells: rat pituitary. The conditions noted are these: read-out: rGnRH IC50. How it is done:
All compounds were diluted in 1% DMSO (final assay concentration) in binding assay buffer. […] Reactions were terminated by rapid filtration onto 96-well Packard GF/C filters soaked in 0.1% polyethyleneimine. Filters were washed three times with PBS buffer, dried and counted on a Packard Topcount by liquid scintillation counting.
Assay conditions were identical for assessing compound activities at other species. […] IC50 values for control peptides and test compounds were calculated utilizing GraphPad Prism™ software.
The reaction mixture was vortexed and incubated for 1 min at room temperature. After one min, the mixture was vortexed and allowed to incubate for an additional minute. 2 ml of 0.5 M acetic acid/1% BSA was added to the reaction tube and the mixture was added to a C18 Sep-Pak cartridge. The cartridge was washed with subsequent washes of 5 ml H2O and 5 ml 0.5M acetic acid and then eluted with 5×1 ml of 60% CH3CN/40% 0.5M acetic acid. The eluate was diluted with 3× volume of HPLC buffer A (0.1% TFA in H2O) and loaded onto a C18 column. […] The radioactive fractions (750 ed/fraction) are collected into clean polypropylene tubes containing 100 μl of 10% BSA. Fractions were assessed for biological activity by radioligand binding.

The target of another series is T3, mouse GnRH receptor (Mus musculus, UniProt Q01776).
T3 construct: expressed in transfected cells; host or cells: 293 cells
T3 sequence (Q01776 1-327): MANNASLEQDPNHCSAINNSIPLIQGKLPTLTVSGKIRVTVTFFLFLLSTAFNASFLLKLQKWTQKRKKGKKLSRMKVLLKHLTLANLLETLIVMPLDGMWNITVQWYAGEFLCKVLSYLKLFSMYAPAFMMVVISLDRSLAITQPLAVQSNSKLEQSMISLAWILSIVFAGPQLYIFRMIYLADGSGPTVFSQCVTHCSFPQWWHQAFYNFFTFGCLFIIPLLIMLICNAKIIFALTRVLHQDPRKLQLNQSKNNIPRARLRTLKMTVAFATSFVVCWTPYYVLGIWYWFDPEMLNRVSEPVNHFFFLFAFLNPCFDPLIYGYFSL
Nature of the series: Radioligand binding, 125I-GnRH-A, 293 cells expressing mouse GnRH receptors. Conditions: read-out: mGnRH IC50. An outline of the steps:
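Bound label captured on 0.1% polyethyleneimine-treated GF/C filters, washed three times with PBS, counted. IC50 derived; identical set-up for every species.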

Series [1] can be described thus: Pharmacokinetic studies / bioavailability in rats. The conditions noted are these: rat female. Format: in vivo, rat.
[2] abbreviates: female, rat, plasma, po, 10 mg/kg, p.o. 10 mg/kg, 5 mg/ml solution in 10% DMSO 10% cremophor 80% saline.

Structures are written as SMILES. A value given as a limit tells only on which side of the number the result lay.

As usually defined, the IC50 is the concentration at which inhibition is half-maximal. `Cc1cc2c(cc1Cc1ccc(C(N)=O)o1)C(C)(C)CCC2(C)C` [AXC- 06675]: the IC50 on human GnRH receptor came out at 2000 nM; at rat GnRH receptor, 2800 nM.

As to `Cc1cc2c(cc1Cc1ccc(C(=O)NCc3ccccc3-c3ccccc3)o1)C(C)(C)CCC2(C)C` [Compound 67], the IC50 at rat GnRH receptor came to 1160 nM. With `Cc1cc2c(cc1Cc1ccc(C(=O)NCC3CCNCC3)o1)C(C)(C)CCC2(C)C` [Compound 76], the figures for the IC50 at human GnRH receptor and on rat GnRH receptor were 880 nM and 5300 nM, respectively. In the case of `Cc1ccc(C)c(Cc2ccc(C(=O)NCc3cnc(C)cn3)o2)c1` [Compound 77], the IC50 on human GnRH receptor was over 10000 nM; on rat GnRH receptor, 8450 nM.

For the molecule `Cc1cc2c(cc1Cc1ccc(C(=O)Nc3cccnc3)o1)C(C)(C)CCC2(C)C` [Compound 78], the IC50 on rat GnRH receptor amounted to 1300 nM.

Regarding `Cc1cc2c(cc1Cc1ccc(C(=O)NCc3ccc(-c4csnn4)cc3)o1)C(C)(C)CCC2(C)C` [Compound 79], the results for the IC50 at human GnRH receptor and at rat GnRH receptor were 250 nM and 370 nM, respectively. Consider `Cc1cnc(CNC(=O)c2ccc(Cc3c(C)cc(C)c(Br)c3C)o2)cn1` [Compound 80], for which the IC50 on rat GnRH receptor is 5610 nM. Take `Cc1cc(C)c(Cc2ccc(C(=O)NCc3cnc(C)cn3)o2)c(C)c1` [Compound 81]: the IC50 at rat GnRH receptor was found to be 8080 nM.

Turning to `Cc1cc2c(cc1Cc1ccc(C(=O)NC3CCNC3)o1)C(C)(C)CCC2(C)C` (stereo not shown) [Compound 82], on rat GnRH receptor, the IC50 was determined as 9200 nM. For the molecule `Cc1cc2c(cc1Cc1ccc(C(=O)NCCCN3CCOCC3)o1)C(C)(C)CCC2(C)C` [Compound 83], the figures for the IC50 on human GnRH receptor and on rat GnRH receptor were 620 nM and 1740 nM, respectively. The like results for `COc1cc(C)c(Cc2ccc(C(=O)NCc3cnc(C)cn3)o2)cc1OC` [Compound 84] were, in that order, 8000 nM and 770 nM. On to `Cc1cc2c(cc1Cc1ccc(C(=O)NC[C@H]3CC[C@H](c4nc5ccccc5[nH]4)CC3)o1)C(C)(C)CCC2(C)C` [Compound 85], for which the IC50 at rat GnRH receptor is over 10000 nM. Turning to `Cc1cc2c(cc1Cc1ccc(C(=O)N3CCC(CNc4nccc(NCC5CCCO5)n4)CC3)o1)C(C)(C)CCC2(C)C` (stereo not shown) [Compound 86.5], the results for the IC50 on human GnRH receptor and at rat GnRH receptor were 2570 nM and 2050 nM, respectively.

Turning to `Cc1cc2c(cc1Cc1ccc(C(=O)NC3CCN(C(=O)OC(C)(C)C)C3)o1)C(C)(C)CCC2(C)C` (stereo not shown) [Compound 88], on rat GnRH receptor, the concentration for half-maximal inhibition (IC50) turned out to be 2340 nM.

On to `Cc1cc2c(cc1Cc1ccc(C(=O)N3CCC(Nc4ccnc(NCC5CCCO5)n4)C3)o1)C(C)(C)CCC2(C)C` (stereo not shown) [Compound 94.5], for which, at rat GnRH receptor, the IC50 was 4830 nM. In the case of `Cc1cc2c(cc1Cc1ccc(C(=O)NCc3ccc(CNC(=O)C(F)(F)F)cc3)o1)C(C)(C)CCC2(C)C` [Compound 104], the IC50 at rat GnRH receptor is 1260 nM. The same measure, in the same setting: then `Cc1cc2c(cc1Cc1ccc(C(=O)Nc3ccc(C(N)=O)cc3)o1)C(C)(C)CCC2(C)C` [Compound 108], with 2740 nM. Take `Cc1cc2c(cc1Cc1ccc(C(=O)NC3CCC(NC(=O)C(F)(F)F)CC3)o1)C(C)(C)CCC2(C)C` (stereo not shown) [Compound 110]: the half-maximal inhibitory concentration (IC50) at rat GnRH receptor was over 10000 nM. On to `Cc1cc2c(cc1Cc1ccc(C(=O)NC3CCC(N)CC3)o1)C(C)(C)CCC2(C)C` (stereo not shown) [Compound 112], for which, at rat GnRH receptor, the IC50 was 7780 nM. In the case of `Cc1cc(NS(=O)(=O)c2ccc(NC(=O)c3ccc(Cc4cc5c(cc4C)C(C)(C)CCC5(C)C)o3)cc2)no1` [Compound 114], the half-inhibitory concentration (IC50) at rat GnRH receptor was 7000 nM. Turning to `Cc1cc2c(cc1Cc1ccc(C(=O)NC[C@@H](O)c3ccccc3)o1)C(C)(C)CCC2(C)C` [Compound 124], the IC50 at rat GnRH receptor amounted to 750 nM. Regarding `COc1ccc(CNC(=O)c2ccc(Cc3cc4c(cc3C)C(C)(C)CCC4(C)C)o2)c2ccccc12` [Compound 129], the IC50 on rat GnRH receptor amounted to 1390 nM. Usually Cmax stands for the maximum level reached in the sampled fluid or tissue. The Tmax is the time from dosing to the highest level. As a reminder, the half-life is the time in which the quantity being followed falls by half. `COc1cc(OC)c(NC(=O)c2ccc(Cc3cc4c(cc3C)C(C)(C)CC4(C)C)o2)c(OC)c1` [Compound 300]: the values for the IC50 at human GnRH receptor and at mouse GnRH receptor were 3.2 nM and 3.1 nM, respectively. Also, the maximum concentration (Cmax) in series [1] (setting [2]) was determined as 360 nM. In addition, the Tmax in series [1] (setting [2]) amounted to 1 h. In series [1] (female, rat, plasma), the half-life is 2.1 h. Also, the Fp.o. in series [1] (5 mg/ml solution in 10% DMSO 10% cremophor 80% saline) is 10% (10 mg/kg)^10.

As for `COc1cc(NC(=O)c2ccc(Cc3cc4c(cc3C)C(C)(C)CCC4(C)C)o2)cc(OC)c1OC` [Compound 301], the IC50 was found to be 45 nM on human GnRH receptor and 38 nM on mouse GnRH receptor.
